Where two headings read alike, the source gives them in different places.

Experiment [1] deals with T1, SMYD3 (Homo sapiens, UniProt Q9H7B4).
T1 construct: purchased Structural Genomics Consortium (SGC Toronto) in-house methyltransferase panel
T1 sequence (Q9H7B4 1-428): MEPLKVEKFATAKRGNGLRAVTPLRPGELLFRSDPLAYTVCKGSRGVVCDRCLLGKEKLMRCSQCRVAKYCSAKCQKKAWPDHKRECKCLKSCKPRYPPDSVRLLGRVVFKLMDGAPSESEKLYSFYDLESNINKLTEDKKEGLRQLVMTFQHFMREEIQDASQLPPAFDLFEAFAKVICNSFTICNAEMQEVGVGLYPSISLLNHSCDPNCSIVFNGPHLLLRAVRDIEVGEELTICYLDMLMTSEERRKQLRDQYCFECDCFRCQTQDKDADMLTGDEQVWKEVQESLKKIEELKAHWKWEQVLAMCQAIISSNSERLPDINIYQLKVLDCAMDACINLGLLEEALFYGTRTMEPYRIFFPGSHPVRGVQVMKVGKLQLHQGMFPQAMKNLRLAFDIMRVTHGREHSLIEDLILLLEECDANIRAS
Description: Methyltransferase selectivity assay (SPA). Format: biochemical.

The target of experiment [2] is T2, MLL1 trimeric complex (Homo sapiens, UniProt Q03164).
T2 construct: purchased Structural Genomics Consortium (SGC Toronto) in-house methyltransferase panel
Description: Methyltransferase selectivity assay (SPA). Format: biochemical.

Experiment [3] has as its target PRDM9 (Homo sapiens, UniProt Q9NQV7). In words: PRDM9 cellular assay: H3K4me3 of exogenous H3-GFP in HEK293T cells (western blot). It is filed as cell-based. The settings on record: for IC50: H3-GFP and PRDM9-FLAG co-transfected, 20 h of treatment, read-out: IC50, PRDM9-dependent trimethylation of ectopic H3K4. Here is the method: HEK293T cells were co-transfected with H3-GFP and PRDM9-FLAG and treated with compounds at indicated concentrations for 20 h. Mut denotes PRDM9 catalytic mutant (Y357S). […] Cells were treated with compounds for 1 day. Cell number was measured using IncuCyte™ ZOOM live cell imaging device. The results are mean ± sd, n = 3. Source data are provided as a Source Data file.
HEK293T (kind gift from Sam Benchimol, York University), or MCF7 (ATCC® HTB-22™), cells were plated (12 well plates) and next day co-transfected with 0.1 (HEK293T) or 0.2 (MCF7) µg of GFP-tagged histone H3 and with 0.1 (HEK293T) or 0.2 (MCF7) µg of Flag-tagged PRDM9/PRDM9 catalytic mutant (Y357S) and 0.8 or 0.6 µg of empty vector using JetPRIME® transfection reagent, following manufacturer instructions. After 4 h media was removed and cells were treated with compounds for 20 h. Next day, cells were lysed in lysis buffer (20 mM Tris-HCl pH 8, 150 mM NaCl, 1 mM EDTA, 10 mM MgCl2, 0.5% TritonX-100, 12.5 U mL^−1 benzonase (Sigma), complete EDTA-free protease inhibitor cocktail (Roche)). After 2 min incubation at RT, SDS was added to final 1% concentration. Cell lysates were analyzed in western blot for GFP and H3K4me3 levels. All cell lines were mycoplasma negative, as determined by MycoAlert™ Mycoplasma Detection Kit (Lonza).
Total cell lysates were resolved in 4–12% Bis-Tris Protein Gels (Invitrogen) and transferred in for 1.5 h (80 V) onto PVDF membrane (Millipore) in Tris-Glycine transfer buffer containing 20% MeOH and 0.05% SDS. Blots were blocked for 1 h in blocking buffer (5% milk in PBS) and incubated with primary antibodies anti-GFP (1:3000, Clontech # 632381), anti-H3K4me3 (1:1000, Millipore, #04-745), anti-histone H3 (1:2000, #ab10799, Abcam), anti-Flag (1:5000, #F4799, Sigma) in blocking buffer (5% BSA in 0.1% Tween 20 PBS) overnight at 4 °C. After five washes with 0.1% Tween 20 PBS the blots were incubated with goat-anti rabbit (IR800) and donkey anti-mouse (IR 680) antibodies (1:5000) in Odyssey Blocking Buffer (LiCor) for 1 h at RT and washed five times with 0.1% Tween 20 PBS. The signal was read on an Odyssey scanner (LiCor) at 800 nm and 700 nm and analyzed with Image Studio Ver.5.2 software.
On the technique in general: Immunoblotting shows a protein as a band on a membrane.

Where [4] appears, read: 10µM compound, Exp1, Exp2, 10 µM.
Setting [5] is: HEK-293T, 20 h, Figure 6b, replicates, read-out: H3K4me3/GFP - western blot, % control.
Where [6] appears, read: 1µM compound, Exp1, Exp2, read-out: Activity %.
[7] abbreviates: 10µM compound, Exp1, Exp2, read-out: Activity %.

PRDM9, sequence (Q9NQV7 whole entry): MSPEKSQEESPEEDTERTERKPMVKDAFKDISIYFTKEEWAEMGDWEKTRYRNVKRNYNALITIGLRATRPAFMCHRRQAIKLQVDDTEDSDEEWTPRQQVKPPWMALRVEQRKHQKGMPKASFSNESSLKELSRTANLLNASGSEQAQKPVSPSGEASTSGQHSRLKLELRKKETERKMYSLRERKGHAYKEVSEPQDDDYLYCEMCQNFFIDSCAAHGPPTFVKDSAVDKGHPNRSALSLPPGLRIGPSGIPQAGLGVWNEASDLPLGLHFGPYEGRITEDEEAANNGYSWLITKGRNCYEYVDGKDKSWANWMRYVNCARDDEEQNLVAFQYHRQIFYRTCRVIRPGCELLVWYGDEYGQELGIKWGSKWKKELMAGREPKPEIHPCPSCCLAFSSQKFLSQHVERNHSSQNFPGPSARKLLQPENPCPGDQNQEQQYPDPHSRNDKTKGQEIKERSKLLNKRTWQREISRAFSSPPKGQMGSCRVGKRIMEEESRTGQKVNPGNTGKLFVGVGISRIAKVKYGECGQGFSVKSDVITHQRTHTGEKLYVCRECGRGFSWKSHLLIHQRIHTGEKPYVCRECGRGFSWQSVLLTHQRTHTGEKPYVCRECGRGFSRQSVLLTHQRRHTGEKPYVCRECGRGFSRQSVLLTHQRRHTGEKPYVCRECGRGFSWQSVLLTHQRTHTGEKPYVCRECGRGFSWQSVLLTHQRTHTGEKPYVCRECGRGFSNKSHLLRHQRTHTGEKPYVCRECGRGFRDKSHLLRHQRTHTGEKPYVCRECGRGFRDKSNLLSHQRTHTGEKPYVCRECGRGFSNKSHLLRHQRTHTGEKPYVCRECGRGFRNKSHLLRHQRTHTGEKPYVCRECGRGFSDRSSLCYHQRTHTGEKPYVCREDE

In the case of `COc1cc(OC)cc(-c2noc(N3CCN(C)C4(CCN(c5ccccc5)CC4)C3)n2)c1` [MRK-740 -NC], the activity at 1 µM in experiment [1] (1µM compound, Exp1, Exp2) came to 100%; in experiment [2] (1µM compound, Exp1, Exp2), 95%. Besides, the Activity % stood at 102% in experiment [1] (1µM compound, Exp1, Exp2, 1 µM); 89% in experiment [1] (setting [4]); 97% in experiment [2] (setting [4]). The activity at 10 µM in experiment [1] (10µM compound, Exp1, Exp2) worked out at 96%; in experiment [2] (10µM compound, Exp1, Exp2), 98%.
Usually IC50 stands for the point on the concentration scale where inhibition reaches its midpoint. As for `COc1cc(OC)cc(-c2noc(N3CCN(C)C4(CCN(c5ccccc5)CC4)C3)n2)c1` [MRK-740-NC], the IC50 in experiment [3] was more than 10000 nM. The remaining activity at 0.256 µM in experiment [3] (HEK-293T, 20 h, 0.256 µM, Figure 6b, replicates, read-out: H3K4me3/GFP - western blot, % control) was determined as 100%. The remaining activity at 0.64 µM in experiment [3] (HEK-293T, 20 h, 0.64 µM, Figure 6b, replicates, read-out: H3K4me3/GFP - western blot, % control) amounted to 89.9%. Besides, the remaining activity at 1.6 µM in experiment [3] (HEK-293T, 20 h, 1.6 µM, Figure 6b, replicates, read-out: H3K4me3/GFP - western blot, % control) was found to be 103%. Further, the remaining activity at 3.33334 µM in experiment [3] (setting [5]) is 113%. For the same compound, the remaining activity at 4 µM in experiment [3] (HEK-293T, 20 h, 4 µM, Figure 6b, replicates, read-out: H3K4me3/GFP - western blot, % control) turned out to be 111%. In experiment [3] (HEK-293T, 20 h, 10 µM, Figure 6b, replicates, read-out: H3K4me3/GFP - western blot, % control), the remaining activity at 10 µM worked out at 116%.
In general, IC90 refers to the concentration at which the effect reaches the 90% level. Consider `COc1cc(OC)cc(-c2noc(N3CCN(C)C4(CCN(c5ccnc(C)c5)CC4)C3)n2)c1` [MRK-740], for which, in experiment [3], the IC50 amounted to 800 ± 100 nM. Besides, the remaining activity at 0.123455 µM in experiment [3] (HEK-293T, 20 h, 0.123455 µM, Figure 6b, replicates, read-out: H3K4me3/GFP - western blot, % control) was found to be 109%. In addition, the remaining activity at 0.370374 µM in experiment [3] (HEK-293T, 20 h, 0.370374 µM, Figure 6b, replicates, read-out: H3K4me3/GFP - western blot, % control) is 89.7%. In experiment [3] (HEK-293T, 20 h, 1.11111 µM, Figure 6b, replicates, read-out: H3K4me3/GFP - western blot, % control), the remaining activity at 1.11111 µM stood at 25.7%. In experiment [3] (setting [5]), the remaining activity at 3.33334 µM stood at 11.4%. The remaining activity at 30 µM in experiment [3] (HEK-293T, 20 h, 30 µM, Figure 6b, replicates, read-out: H3K4me3/GFP - western blot, % control) came to 3.21%. Moreover, in experiment [3] (HEK-293T, read-out: IC90, PRDM9-dependent H3K4 trimethylation in cells), the 90% effect concentration (IC90) came to 3000 nM. Further, the Activity % came to 91% in experiment [1] (1µM compound, Exp1, Exp2, 1 µM); 101% in experiment [1] (setting [4]); 90% in experiment [2] (1µM compound, Exp1, Exp2, 1 µM); 90% in experiment [2] (setting [4]). Moreover, the activity at 1 µM in experiment [1] (setting [6]) came out at 95%; in experiment [2] (setting [6]) it was 96%. Besides, the results for the activity at 10 µM in experiment [1] (setting [7]) and in experiment [2] (setting [7]) were 96% and 94%, respectively.

Values taken from publication PMC6917776, “Discovery of a chemical probe for PRDM9” (Nature Communications, 2019).
